From the supplement of paper PMC10307832

Assays:
Test in all cases: relative viability (nuclei count vs DMSO), 5 days (fraction); higher = more cells survive
[1] = compound: C1CSC2=C(C(=O)N1)SC3=C2C=C(C=C3)O [kb NB 142-70] + N=C(N)NC(=N)NCCc1ccccc1 [Phenformin] (partner 250 µM)
Outline: (§1)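 A single step with final 0.05% Triton X-100, 1% formaldehyde and 1 ug/ml Hoechst fixed the cells and stained nuclei 5 days after treatment. Lung cancer cell lines in 1536-well plates had been treated by pin tool the day after seeding with one drug alone or a fixed anchor-drug dose plus five library-drug doses (not always all listed) in √10 steps, and nuclei were counted on 4× images. Relative viability is the ratio of nuclei in treated wells to nuclei in vehicle wells, taken as the median of duplicate plates.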

[2] = compound: C1CSC2=C(C(=O)N1)SC3=C2C=C(C=C3)O [kb NB 142-70] + CC1(C)CCC(c2ccc(Cl)cc2)=C(CN2CCN(c3ccc(C(=O)NS(=O)(=O)c4ccc(N[C@H](CCN5CCOCC5)CSc5ccccc5)c(S(=O)(=O)C(F)(F)F)c4)cc3)CC2)C1 [Navitoclax] (partner 0.5 µM)
Outline: as §1

[3] = compound: NCC(=O)Nc1ccc(-n2nc(C(F)(F)F)cc2-c2ccc3c(ccc4ccccc43)c2)cc1 + N=C(N)NC(=N)NCCc1ccccc1 [Phenformin] (partner 250 µM)
Outline: as §1

kb NB 142-70 = compound: C1CSC2=C(C(=O)N1)SC3=C2C=C(C=C3)O [kb NB 142-70]
Outline: (§2)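 For viability, nuclei in each treated well were divided by nuclei in vehicle wells and the median across plates was taken. Lung cancer cell lines in 1536-well plates were pinned with five library-drug doses (not always all listed) spaced by √10, cultured 5 days without medium change, and imaged at 4× after Hoechst staining, with plates passing only at control CV below 25% and at least one doubling.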

[4] = compound: NCC(=O)Nc1ccc(-n2nc(C(F)(F)F)cc2-c2ccc3c(ccc4ccccc43)c2)cc1
Outline: as §2

Cell Line | relative viability ([1]; first compound 0.1 µM) | relative viability ([1]; first compound 1 µM) | relative viability ([1]; first compound 3.162 µM) | relative viability ([2]; first compound 0.1 µM) | relative viability ([2]; first compound 1 µM) | relative viability ([2]; first compound 3.162 µM) | relative viability ([3]; first compound 0.02 µM) | relative viability ([3]; first compound 0.06325 µM) | relative viability ([3]; first compound 0.2 µM) | relative viability ([3]; first compound 0.6325 µM) | relative viability ([3]; first compound 2 µM) | relative viability (kb NB 142-70; 0.1 µM) | relative viability (kb NB 142-70; 1 µM) | relative viability (kb NB 142-70; 3.162 µM) | relative viability ([4]; 0.02 µM) | relative viability ([4]; 0.06325 µM) | relative viability ([4]; 0.2 µM) | relative viability ([4]; 0.6325 µM) | relative viability ([4]; 2 µM)
EMC-BAC-2 | 0.524 | 0.501 | 0.38 | 1.16 | 1.28 | 1.27 | 0.472 | 0.488 | 0.549 | 0.56 | 0.541 | 1.08 | 0.972 | 0.632 | 0.918 | 1.01 | 1.05 | 0.931 | 1
LU99A | 0.789 | 0.666 | 0.722 | 0.845 | 0.816 | 0.598 | 0.76 | 0.877 | 0.908 | 0.824 | 0.921 | 0.94 | 0.816 | 0.637 | 0.864 | 0.915 | 0.987 | 0.908 | 0.967
NCI-H2170 | 0.429 | 0.405 | 0.395 | 0.564 | 0.674 | 0.432 | 0.397 | 0.446 | 0.429 | 0.438 | 0.457 | 0.965 | 1.02 | 0.825 | 0.985 | 0.974 | 0.967 | 0.949 | 0.997
NCI-H2347 | 0.412 | 0.349 | 0.381 | 0.867 | 0.77 | 0.608 | 0.51 | 0.394 | 0.547 | 0.386 | 0.281 | 1.05 | 1.02 | 0.949 | 0.99 | 1.06 | 1.16 | 1.11 | 1.07
NCI-H1993 | 0.567 | 0.488 | 0.549 | 0.941 | 0.82 | 0.799 | 0.453 | 0.438 | 0.515 | 0.493 | 0.5 | 1.03 | 0.857 | 0.716 | 0.934 | 1.1 | 1.05 | 1 | 1.04
NCI-H322M | 0.755 | 0.795 | 0.86 | 1.2 | 1.15 | 1.11 | 0.808 | 0.739 | 0.766 | 0.747 | 0.811 | 1.03 | 1 | 0.92 | 1.01 | 0.958 | 0.92 | 0.98 | 0.996
NCI-H838 | 0.561 | 0.575 | 0.571 | 1.19 | 1.14 | 1 | 0.51 | 0.661 | 0.634 | 0.548 | 0.497 | 0.965 | 0.961 | 0.963 | 0.958 | 0.998 | 1 | 0.909 | 0.864
HARA | 0.486 | 0.473 | 0.344 | 1.15 | 1.11 | 1.08 | 0.479 | 0.407 | 0.456 | 0.441 | 0.53 | 0.986 | 0.971 | 1.02 | 0.901 | 1.09 | 0.975 | 1.11 | 1.07
NCI-H2087 | 0.432 | 0.555 | 0.411 | 1.06 | 1.11 | 0.771 | 0.455 | 0.583 | 0.441 | 0.48 | 0.47 | 1.04 | 1.29 | 0.951 | 0.978 | 1.09 | 1.1 | 1.08 | 1.02
NCI-H1437 | 0.308 | 0.292 | 0.262 | 1.05 | 1.13 | 1.02 | 0.247 | 0.302 | 0.331 | 0.308 | 0.339 | 0.986 | 1 | 0.975 | 0.975 | 1.05 | 0.957 | 1.01 | 0.946
NCI-H1792 |  | 0.297 | 0.392 | 0.604 | 0.619 | 0.644 | 0.325 | 0.364 | 0.297 | 0.337 | 0.411 | 0.928 | 0.937 | 0.915 | 1.05 | 0.812 | 0.875 | 0.95 | 0.911
ChaGo-K-1 | 0.513 | 0.49 | 0.453 | 1.17 | 1.11 | 0.885 | 0.438 | 0.495 | 0.443 | 0.522 | 0.519 | 1.06 | 1.05 | 0.946 | 0.98 | 0.994 | 0.941 | 0.971 | 1.03
COR-L23 | 0.416 | 0.426 | 0.258 | 0.941 | 1.08 | 0.324 | 0.394 | 0.434 | 0.439 | 0.44 | 0.417 | 0.961 | 1.14 | 0.507 | 1.08 | 1.02 | 1.07 | 1 | 0.882
COR-L 105 | 0.428 | 0.534 | 0.486 | 0.746 | 0.828 | 0.727 | 0.408 | 0.517 | 0.5 | 0.539 | 0.492 | 0.86 | 0.88 | 1.02 | 0.843 | 1.02 | 0.916 | 0.891 | 0.94
LK-2 | 0.5 | 0.403 | 0.318 | 0.879 | 0.723 | 0.464 | 0.31 | 0.638 | 0.425 | 0.496 | 0.435 | 1.01 | 0.855 | 0.685 | 0.923 | 1.05 | 0.935 | 1.06 | 0.909
201T | 0.453 | 0.418 | 0.492 | 1.22 | 1.26 | 1.17 | 0.448 | 0.489 | 0.408 | 0.466 | 0.446 | 1.01 | 0.966 | 1.02 | 0.892 | 1.01 | 0.98 | 0.989 | 1.01
